Measurements from patent US12539279B2, “Supramolecular ionizable lipid molecules with heteroatomic tuning for nucleic acid delivery” (priority 2023, dated 2026).
“Also recorded” adds a separate entry of the source. Where two headings read alike, the source gives them in different places.

Tests used:
[1] = mRNA encapsulation efficiency (modified Quant-iT RiboGreen assay); assay type: physicochemical; details: LNP before freezing
Protocol: For LNPs encapsulating mRNA, mRNA concentration and encapsulation efficiency were determined using a modified Quant-iT RiboGreen assay (Invitrogen). The assay was performed in triplicates in a 96 well plate. 12 μL of the LNP sample or TE buffer (composed of 10 mM Tris-HCl containing 1 mM EDTA·Na2) (blank sample) was diluted in 300 μL of 1×TE buffer pH 7.5. 50 μL of the diluted samples were transferred to 6 separate wells and either 50 μL of TE buffer or 50 μL of a 4% Triton X-100 solution in TE buffer was added to the wells. Two 6-point standard curves ([…]) were prepared in the same plate by diluting Firefly luciferase mRNA to a final volume of 100 μL in 2% Triton X-100 or TE buffer. The plate was then incubated for 10 min at 40° C. with gentle shaking. The Ribogreen reagent was diluted 1:100 in TE buffer, and 100 μL of this solution was added to each well. […] Fluorescence intensity was measured with a plate reader at an excitation wavelength of 480 nm and an emission wavelength of 525 nm. The raw fluorescence values were subtracted by the background fluorescence (blank sample). The concentration of free mRNA and total mRNA were determined by linear interpolation of the appropriate standard curve. Encapsulation efficiency was determined by dividing the calculated concentration of encapsulated mRNA by the total mRNA concentration in the LNP sample.

[2] = assay type: physicochemical
Protocol: Determination of the apparent pKa of LNPs was carried out using a TNS assay. Briefly, a series of buffers was generated by titrating a solution containing 10 mM citrate, 10 mM phosphate, 10 mM borate, and 150 mM NaCl with 1.0 M HCl. Aliquots of this combined buffer were taken to generate 12 total buffers ranging from pH 4.0 to 9.5 in increments of 0.5 pH. LNPs (diluted to 100 uM of ionizable lipid in distilled water) and 6-(p-toluidino)-2-naphthalenesulfonic acid (TNS, Sigma Aldrich, 60 uM in distilled water) were diluted into these buffers to a final concentration of 9 and 5.45 μM, respectively. The plate was covered and equilibrated at room temperature for 20 min. Fluorescence intensity was determined using a BioTek H1 Synergy plate reader (325 nm excitation/435 nm emission). The raw fluorescence values were fit using GraphPad Prism 8 to determine pKa, which corresponds to the pH value at 50% max fluorescence.

[3] = tested on: firefly luciferase protein expression; assay: Intramuscular expression profile of formulated firefly luciferase mRNA in mice (IVIS); assay type: in vivo, BALB/c mice; details: intramuscular firefly luciferase mRNA-LNP
Protocol: (§1) All procedures used in animal studies conducted at the University of Toronto were approved by Institutional Animal Care and Use committee (IACUC) under protocol number 20012621 and comply with all applicable local, provincial, and federal regulations. Female BALB/c mice (7-8 weeks old) were purchased from Charles River Laboratories and acclimated for 1 to 2 weeks before initiation of the study.
Mice (n=4) were injected in both quadriceps with 0.5 μg of formulated firefly luciferase mRNA in 50 μL. At various timepoints (6 hours, 24 hours, 48 hours, and 96 hours post-dose), mice were injected intraperitoneally with 3 mg D-Luciferin (Thermo Scientific 88291) in 200 μL 1×PBS. 5 minutes later, mice were anesthetized and imaged on an in vivo imaging system (PerkinElmer, IVIS Spectrum) to measure total bioluminescent flux (photons/second) in each hindlimb (FIG. 2). The area under curve (AUC) for individual hindlimbs was determined with GraphPad Prism 9.

[4] = tested on: firefly luciferase mRNA expression in liver, spleen, lungs, heart, kidneys; assay: Organ expression of firefly luciferase mRNA after intravenous injection in mice; assay type: in vivo, BALB/c mice; details: 6 hours post-dose; for organ in which the highest total flux was measured: intravenous 0.5 μg mRNA
Protocol: as §1
Mice (n=3) were injected intravenously (tail vein) with 0.5 μg of formulated firefly luciferase mRNA in 200 μL. At 6 hours post-dose, mice were injected intraperitoneally with 3 mg D-Luciferin (Thermo Scientific 88291) in 200 μL 1×PBS. 5 minutes later, mice were euthanized and key organs (liver, spleen, kidneys, lungs, and heart) were harvested and immediately imaged on an in vivo imaging system (PerkinElmer, IVIS Spectrum) to measure total bioluminescent flux (photons/second). LNPs formulated with compounds I-2, I-4, I-5, I-6, I-8 were tested for their ability to functionally deliver firefly luciferase mRNA to the major organs (liver, spleen, lungs, heart, kidneys) after intravenous injection and were compared to compounds I-12 and SM-102.

[5] = Pharmacokinetics after intramuscular injection of mRNA-LNPs in mice; assay type: in vivo, female CD-1 mice; details: for Kp / half-life / AUC(0-t) / Cmax: female; for half-life / AUC(0-t) / Cmax: CD-1; for half-life: I-12 estimate not considered accurate, read-out: estimated apparent half-life (t1/2) in plasma (converted); for AUC(0-t): read-out: Overall plasma exposure (AUC0-tlast); for Cmax: read-out: maximum plasma concentration (Cmax); for Overall tissue exposure (AUC0-tlast), liver: mouse liver; for Overall tissue exposure (AUC0-tlast), muscle: mouse muscle; for time of peak plasma level: 12.312 μg Compound I-12 or 12.764 μg Compound I-6; for Overall tissue exposure (AUC0-tlast), spleen: mouse spleen; for detection in urine: mouse urine
Protocol: Pharmacokinetic studies in mice were conducted according to Transpharmation Canada Ltd. standard operating procedures (SOPs) and accepted scientific practices but was not in accordance with the principles of Good Laboratory Practice (GLP). Two studies were conducted and have been combined for analysis. Their objective was to determine the concentrations of two ionizable lipids, Compound I-12, and Compound I-6, in plasma, muscle, liver, spleen, urine, and feces following intramuscular (IM) injection of each lipid to groups of female CD-1 mice. All animals received an intramuscular injection of one of the lipids, formulated as lipid nanoparticles (LNPs) with mRNA, into the right quadricep. Doses administered IM were 12.312 μg of Compound I-12 and 12.764 μg of Compound I-6, corresponding to 0.5 μg of mRNA formulated in LNPs. Animals in study 1 were group housed in metabolic cages (n=3 per cage) and euthanized at 6 timepoints (3, 6, 12, 24, 48 and 96 hours) over 4 days-post injection for the collection of blood, liver, spleen, and muscle (n=3/time-point). A single pooled urine and feces sample was also collected from each cage at the appropriate time-point. In study 2, animals were housed in shoebox cages and samples (n=4/time-point) were collected at 6, 12, 24, 48, 96 and 168 hours (Compound I-12 and Compound I-6) and at 21 days (I-12 only, n=3) post-dose. A single pooled feces sample was also collected from each cage at the time of cage changes and weighed following terminal collections. Blood samples were divided for bioanalysis and diagnostic testing. Data from both studies was combined for data analysis. Tandem liquid chromatography-mass spectrometry (LC-MS/MS) methods were developed for the quantification of Compound I-12 and Compound I-6 in mouse plasma, muscle, liver, spleen, urine, and feces. The qualified methods were used to determine the concentration of the analytes in each matrix. The pharmacokinetics (PK) parameters for Compound I-12 and Compound I-6 were estimated from the plasma, muscle, liver, and spleen concentration versus time curves for each animal using Phoenix® WinNonlin 8.3 (Certara, Mountainview, CA).

[6] = assay type: physicochemical; details: for time required to have measurable levels of hydrolysis: 2.5 eq. KOH in d4-methanol, 1H NMR
Protocol: Ionizable lipids including compounds described herein (2 μmol) were hydrolyzed with 2.5 eq. of KOH (200 μL, 0.025 M in d4-methanol) in a 3 mm NMR tube. 1H-NMR was acquired with a 700 MHz Agilent DD2 Spectrometer every 5 min for a total of 180 min. Additionally, spectra were acquired at 24 h, 48 h, 72 h, 144 h, 192 h, and 240 h for I-12, ALC-0315, and DLin-MC3-DMA. Data acquisition started ˜10 min after the start of the reaction due to sample preparation and tune/lock/shim. Ester peaks were integrated using MestReNova and normalized to value at t=0 min. The data series were fitted to a one phase decay exponential following y=e, where k is the rate of hydrolysis.

[7] = CD-1, liver, mouse, IM mRNA-LNP, read-out: tissue/plasma AUC ratio, liver
[8] = CD-1, muscle, mouse, IM mRNA-LNP, read-out: tissue/plasma AUC ratio, muscle
[9] = CD-1, spleen, mouse, IM mRNA-LNP, read-out: tissue/plasma AUC ratio, spleen

In the case of `CCCCCCCCCCN(CCCCCCCCCC)CCOC(=O)CCN(CCO)CCC(=O)OCCN(CCCCCCCCCC)CCCCCCCCCC` [Compound I-1], the “mRNA encapsulation efficiency relative to amide analogue (Compound I-12)” value [1] was “significantly reduced”, the “Apparent pKa relative to amide analogue (Compound I-12 / F16)” value [2] was “significantly reduced” and the “intramuscular expression (in words)” value [3] was “significantly reduced intramuscular expression”.
With `CCCCCCCCCCN(CCCCCCCCCC)CCCOC(=O)CCN(CCO)CCC(=O)OCCCN(CCCCCCCCCC)CCCCCCCCCC` [Compound I-2] the “organ in which the highest total flux was measured” value [4] was “liver” and the “fraction of expression in the spleen compared with SM-102” value (from here on “fraction … compared with SM-102”) ([4]; intravenous) was “higher fraction of expression in the spleen than SM-102”.
With `CCCCCCCCCCN(CCCCCCCCCC)CCCOC(=O)CCCN(CCO)CCCC(=O)OCCCN(CCCCCCCCCC)CCCCCCCCCC` [Compound I-4] the “Apparent pKa” value [2] was 6-7, the “intramuscular expression (in words)” value [3] was “higher intramuscular expression than DLin-MC3-DMA” and the “organ in which the highest total flux was measured” value [4] was “liver”. For the same compound, the “fraction … compared with SM-102” value ([4]; intravenous) was “higher fraction of expression in the spleen than SM-102”.
With `CCCCCCCCCCN(CCCCCCCCCC)CCCCOC(=O)CCCN(CCO)CCCC(=O)OCCCCN(CCCCCCCCCC)CCCCCCCCCC` [Compound I-5] the “Apparent pKa” value [2] was 6-7, the “intramuscular expression (in words)” value [3] was “higher intramuscular expression than DLin-MC3-DMA” and the “organ in which the highest total flux was measured” value [4] was “spleen”. For the same compound, the “fraction … compared with SM-102” value ([4]; intravenous) was “higher fraction of expression in the spleen than SM-102”.
With `CCCCCCCCCCN(CCCCCCCCCC)CCCOC(=O)CCCCN(CCO)CCCCC(=O)OCCCN(CCCCCCCCCC)CCCCCCCCCC` [Compound I-6] the “Apparent pKa” value [2] was 6-7, the “intramuscular expression (in words)” value [3] was “higher intramuscular expression than DLin-MC3-DMA; also recorded: highest intramuscular expression of all compounds tested” and the “expression compared with SM-102 in spleen and liver” value ([4]; intravenous) was “higher expression than SM-102 in the spleen but not in the liver”. For the same compound, the “expression in organs among the compounds related to this disclosure” value ([4]; intravenous) was “highest expression in all organs”, the “fraction … compared with SM-102” value ([4]; intravenous) was “higher fraction of expression in the spleen than SM-102” and the Kp [5, 7] was 46. It also gave a Kp [5, 8] of 962, a Kp [5, 9] of 59 and a half-life ([5]; mouse plasma, IM mRNA-LNP) of 15.3 h. For the same compound, the AUC(0-t) ([5]; mouse plasma, IM mRNA-LNP) was 1030 ng·h/mL, the Cmax ([5]; mouse plasma, IM mRNA-LNP) was 108 ng/mL and the “Overall tissue exposure (AUC0-tlast), liver” value ([5]; IM mRNA-LNP) was 47.0 µg·h/g. For the same compound, the “Overall tissue exposure (AUC0-tlast), muscle” value ([5]; IM mRNA-LNP) was 994 µg·h/g, the “time of peak plasma level” value ([5]; mouse plasma, IM mRNA-LNP) was 3 h and the “Overall tissue exposure (AUC0-tlast), spleen” value ([5]; IM mRNA-LNP) was 61.1 µg·h/g. The detection in urine ([5]; IM mRNA-LNP) was “Neither Compound I-12 nor Compound I-6 were detected in urine”.
For `CCCCCCCCCCN(CCCCCCCCCC)CCCCOC(=O)CCCCN(CCO)CCCCC(=O)OCCCCN(CCCCCCCCCC)CCCCCCCCCC` [Compound I-7], the “Apparent pKa” value [2] was 6-7 and the “intramuscular expression (in words)” value [3] was “higher intramuscular expression than DLin-MC3-DMA”.
For `CCCCCCCCCCN(CCCCCCCCCC)CCCC(=O)OCCCN(CCO)CCCOC(=O)CCCN(CCCCCCCCCC)CCCCCCCCCC` [Compound I-8], the “Apparent pKa” value [2] was 6-7, the “intramuscular expression (in words)” value [3] was “higher intramuscular expression than DLin-MC3-DMA” and the “organ in which the highest total flux was measured” value [4] was “liver”. The “fraction … compared with SM-102” value ([4]; intravenous) was “higher fraction of expression in the spleen than SM-102” and the “in vitro degradation rate, faster than Compound I-4” value ([6]; 10 mM) was roughly 50%.
With `CCCCCCCCCCN(CCCCCCCCCC)CCNC(=O)CCN(CCO)CCC(=O)NCCN(CCCCCCCCCC)CCCCCCCCCC` [Compound I-12] the “organ in which the highest total flux was measured” value [4] was “spleen”, the “time required to have measurable levels of hydrolysis” value (from here on “time required”) [6] was 10 days and the Kp [5, 7] was 50. For the same compound, the Kp [5, 8] was 236, the Kp [5, 9] was 28 and the half-life ([5]; mouse plasma, IM mRNA-LNP) was 295 h. For the same compound, the AUC(0-t) ([5]; mouse plasma, IM mRNA-LNP) was 13800 ng·h/mL, the Cmax ([5]; mouse plasma, IM mRNA-LNP) was 348 ng/mL and the “Overall tissue exposure (AUC0-tlast), liver” value ([5]; IM mRNA-LNP) was 694 µg·h/g. The “Overall tissue exposure (AUC0-tlast), muscle” value ([5]; IM mRNA-LNP) was 3244 µg·h/g, the “plasma AUC0-tlast, fold greater than Compound I-6” value ([5]; mouse plasma, IM mRNA-LNP) was roughly 13 fold and the “time of peak plasma level” value ([5]; mouse plasma, IM mRNA-LNP) was 6 h. The “Overall tissue exposure (AUC0-tlast), spleen” value ([5]; IM mRNA-LNP) was 391 µg·h/g, the detection in urine ([5]; IM mRNA-LNP) was “Neither Compound I-12 nor Compound I-6 were detected in urine” and the excreted in feces ([5]; mouse, after 21 days post-dose) was “Approximately 18%”.
With `CCCCC/C=C\C/C=C\CCCCCCCCC(CCCCCCCC/C=C\C/C=C\CCCCC)OC(=O)CCCN(C)C` [DLin-MC3-DMA] the “time required” value [6] was 10 days.
With `CCCCCCCCCCCOC(=O)CCCCCN(CCO)CCCCCCCC(=O)OC(CCCCCCCC)CCCCCCCC` [SM-102, reference compound] the “organ in which the highest total flux was measured” value [4] was “liver” and the “time to complete degradation (base-catalyzed hydrolysis)” value ([6]; 10 mM) was no more than 180 min.
For ALC-0315, the “time required” value [6] was 10 days.
